The record followed here is US20100115663A1, “Acetyl-CoA Carboxylase Herbicide Resistant Sorghum” (priority 2007, published 2010).

The subject of assay [1] is Bol-71 wild sorghum genotype. As to the kind of experiment: Greenhouse herbicide spray selection, Bol-71. The class given is in vivo. An excerpt:
(§1) Seeds of 83 wild sorghum populations from Bolivia were planted in a greenhouse for comparison with Tx2783, an herbicide susceptible elite sorghum genotype. Wild sorghum genotypes were planted in flats containing MetroMix 360 potting soil (Sun Gro) and greenhouse grown. Tx2783 was planted with the wild accessions in each flat for comparison. In one selection using clethodim, plants were sprayed with 0.09 lb ai clethodim acre^−1 at 18 days after planting. […] In one selection using fluazifop-P, flats with Tx2783 and wild accessions were sprayed with a rate of 0.12 lb ai fluazifop-P acre^−1 at 18 days after planting and with 0.36 lb ai fluazifop-P acre^−1 at 32 days after planting. […] In a third experiment, plants were sprayed with a rate of 0.05 lb ai quizalofop acre^−1 at 18 days after planting and with 0.11 lb ai quizalofop acre^−1 at 32 days after planting.

Assay [2] deals with Pioneer 84G62 (herbicide susceptible control). As to the kind of experiment: Mode of inheritance greenhouse spray test, susceptible control. The class given is in vivo, sorghum. The note with it: 0.045 lb ai fluazifop-P acre^-1 at 14 days after planting; n=3. As for the experimental part: (§2) The mode of inheritance of herbicide tolerance was determined by planting seeds of Bol-71, F1 generation of cross ATx623 x Bol-71, and Pioneer 84G62 (herbicide susceptible control) in flats containing MetroMix 360 potting soil in a greenhouse using a randomized complete block design (n=3). The plants were sprayed with 0.045 lb ai fluazifop-P acre^−1 at 14 days after planting. Pioneer 84G62 died between 12-16 days after spraying.

Assay [3] has as its system Tx2783, an herbicide susceptible elite sorghum genotype. Nature of the assay: Greenhouse herbicide spray selection, susceptible check. The class given is in vivo.
Source text: as §1

Assay [4] has as its system wild sorghum populations from Bolivia. As to the kind of experiment: Greenhouse herbicide spray selection, wild accessions. The class given is in vivo. The following applies: 83 wild populations.
Source text: as §1

In another assay the test system is Bol-71. As to the kind of experiment: Mode of inheritance greenhouse spray test, Bol-71. The class given is in vivo, wild sorghum. The note with it: 0.045 lb ai fluazifop-P acre^-1 at 14 days after planting; n=3. As for the experimental part: as §2
The subject of assay [5] is F1 generation of cross ATx623 x Bol-71. Nature of the assay: Mode of inheritance greenhouse spray test, F1 hybrid. The class given is in vivo, sorghum. The note with it: 0.045 lb ai fluazifop-P acre^-1 at 14 days after planting; n=3. The method, then:
as §2

Where [6] appears, read: 0.12 lb ai fluazifop-P acre^-1 at 18 days and 0.36 lb ai acre^-1 at 32 days after planting.
Setting [7] is: 0.05 lb ai quizalofop acre^-1 at 18 days and 0.11 lb ai acre^-1 at 32 days after planting.

As for `C[C@@H](Oc1ccc(Oc2ccc(C(F)(F)F)cn2)cc1)C(=O)O` [fluazifop-P], the tolerance to herbicide result in assay [1] (setting [6]) is given as “high levels of tolerance”. Also, in assay [2], the “time at which plants died” value is given as 12-16 days after spraying. In addition, the results for the “plant response to spraying” value in assay [3] (setting [6]) and in assay [4] (setting [6]) were “died” and “many of the wild sorghums died”, respectively. The herbicide damage entry (in the assay with Bol-71; in assay [5]) was “no herbicide damage” each time.

For `CC(Oc1ccc(Oc2cnc3cc(Cl)ccc3n2)cc1)C(=O)O` (stereo not drawn) [quizalofop], in assay [1] (setting [7]), the tolerance to herbicide entry is listed as “high levels of tolerance”. For the same compound, the “plant response to spraying” value in assay [3] (setting [7]) is recorded as “died”; in assay [4] (setting [7]), “many of the wild sorghums died”.
